Assay results published in patent publication US20260015325A1, “ALKOXY HETEROARYL- CARBOXAMIDE OR THIOAMIDE COMPOUNDS” (SYNGENTA CROP PROTECTION AG, priority 2022, published 2026).
Where two headings read alike, the source gives them in different places.

Key:
Format in all cases: in vivo
[1] = test system: Myzus persicae (Green Peach Aphid); assay: Myzus persicae (Green Peach Aphid): systemic activity, pea seedlings; details: 144 h
Description: Example B7: Myzus persicae (Green Peach Aphid). Systemic Activity
Roots of pea seedlings infested with an aphid population of mixed ages were placed directly into aqueous test solutions prepared from 10′000 DMSO stock solutions. The samples were assessed for mortality 6 days after placing seedlings into test solutions.

[2] = test system: Myzus persicae (Green Peach Aphid); assay: Myzus persicae (Green Peach Aphid): intrinsic activity, sucrose solution; details: 120 h
Source text: Example B8: Myzus persicae (Green Peach Aphid). Intrinsic Activity
Test compounds prepared from 10′000 ppm DMSO stock solutions were applied by pipette into 24-well microtiter plates and mixed with sucrose solution. The plates were closed with a stretched Parafilm. A plastic stencil with 24 holes was placed onto the plate and infested pea seedlings were placed directly on the Parafilm. The infested plate was closed with a gel blotting paper and another plastic stencil and then turned upside down. The samples were assessed for mortality 5 days after infestation.

[3] = test system: Myzus persicae (Green Peach Aphid); assay: Myzus persicae (Green Peach Aphid): feeding/contact activity, sunflower leaf discs; details: foliar, 144 h
Description: Example B6: Myzus persicae (Green Peach Aphid): Feeding/Contact Activity
Sunflower leaf discs were placed onto agar in a 24-well microtiter plate and sprayed with aqueous test solutions prepared from 10′000 ppm DMSO stock solutions. After drying, the leaf discs were infested with an aphid population of mixed ages. The samples were assessed for mortality 6 days after infestation.

[4] = test system: Bemisia tabaci (Cotton White Fly); assay: Bemisia tabaci (Cotton White Fly): feeding/contact activity, cotton leaf discs; details: foliar, 144 h
Description: Example B1: Bemisia tabaci (Cotton White Fly): Feeding/Contact Activity
Cotton leaf discs were placed on agar in 24-well microtiter plates and sprayed with aqueous test solutions prepared from 10′000 ppm DMSO stock solutions. After drying the leaf discs were infested with adult white flies. The samples were checked for mortality 6 days after incubation.

[5] = test system: Euschistus heros (Neotropical Brown Stink Bug); assay: Euschistus heros (Neotropical Brown Stink Bug), soybean leaves; details: 120 h, read-out: effect in at least one of the two categories (mortality or growth inhibition); for percent effect (mortality or growth inhibition) at 200 ppm: application rate of 200 ppm, N2 nymphs on sprayed soybean leaves, 5 days after infestation
Description: Example B4: Euschistus heros (Neotropical Brown Stink Bug)
Soybean leaves on agar in 24-well microtiter plates were sprayed with aqueous test solutions prepared from 10′000 ppm DMSO stock solutions. After drying the leaves were infested with N2 nymphs. The samples were assessed for mortality and growth inhibition in comparison to untreated samples 5 days after infestation.

[6] = test system: Tetranychus urticae (Two-Spotted Spider Mite); assay: whole plant or invertebrate; details: foliar, 192 h
Description: Example B11: Tetranychus urticae (Two-Spotted Spider Mite): Feeding/Contact Activity
Bean leaf discs on agar in 24-well microtiter plates were sprayed with aqueous test solutions prepared from 10′000 ppm DMSO stock solutions. After drying the leaf discs were infested with a mite population of mixed ages. The samples were assessed for mortality on mixed population (mobile stages) 8 days after infestation.

[7] = test system: Frankliniella occidentalis (Western Flower Thrips); assay: Frankliniella occidentalis (Western Flower Thrips): feeding/contact activity, sunflower leaf discs; details: foliar, 168 h, application rate of 200 ppm, mixed ages on sprayed sunflower leaf discs, 7 days after infestation
Description: Example B5: Frankliniella occidentalis (Western Flower Thrips): Feeding/Contact Activity
Sunflower leaf discs were placed on agar in 24-well microtiter plates and sprayed with aqueous test solutions prepared from […] stock solutions. After drying the leaf discs were infested with a Frankliniella population of mixed ages. The samples were assessed for mortality 7 days after infestation.

[8] = test rate of 24 ppm, systemic, roots of infested pea seedlings in test solution, 6 days, read-out: mortality
[9] = test rate of 12 ppm, intrinsic, mixed with sucrose solution under Parafilm, 5 days after infestation, read-out: mortality
[10] = application rate of 200 ppm, mixed ages on sprayed sunflower leaf discs, 6 days after infestation, read-out: mortality
[11] = application rate of 200 ppm, adult white flies on sprayed cotton leaf discs, 6 days after incubation, read-out: mortality
[12] = application rate of 200 ppm, mixed population (mobile stages) on sprayed bean leaf discs, 8 days after infestation, read-out: mortality

C[C@@H](COc1cnc(Cl)c(C(=O)NC2(C#N)CC2)c1)N(CC#N)S(=O)(=O)C(F)(F)F [Compound P-8, 2-chloro-N-(1-cyanocyclopropyl)-5-[(2S)-2-[cyanomethyl(trifluoromethylsulfonyl)amino]propoxy]pyridine-3-carboxamide]
≥ 80%: mortality at 24 ppm [1, 8] | mortality at 12 ppm [2, 9] | mortality at 200 ppm [3, 10] | mortality at 200 ppm [4, 11] | percent effect (mortality or growth inhibition) at 200 ppm [5] | mortality at 200 ppm [6, 12]

COCN([C@@H](C)COc1cnc(Cl)c(C(=O)N(C(C)=O)C2CC2)c1)S(=O)(=O)C(F)(F)F [Compound P-12, N-acetyl-2-chloro-N-cyclopropyl-5-[(2S)-2-[methoxymethyl(trifluoromethylsulfonyl)amino]propoxy]pyridine-3-carboxamide]
≥ 80%: mortality at 12 ppm [2, 9] | mortality at 200 ppm [3, 10] | mortality at 200 ppm [4, 11] | percent effect (mortality or growth inhibition) at 200 ppm [5] | mortality at 200 ppm [6, 12]

C[C@@H](COc1cnc(Cl)c(C(=O)N(C)C2CC2)c1)NS(=O)(=O)C(F)(F)F [Compound P-58, 2-chloro-N-cyclopropyl-N-methyl-5-[(2S)-2-(trifluoromethylsulfonylamino)propoxy]pyridine-3-carboxamide]
≥ 80%: mortality at 24 ppm [1, 8] | mortality at 12 ppm [2, 9] | mortality at 200 ppm [3, 10] | mortality at 200 ppm [4, 11] | percent effect (mortality or growth inhibition) at 200 ppm [5]

Cc1ncc(OC[C@H](C)NS(=O)(=O)C(F)(F)F)cc1C(=O)NC1CON(CC(F)(F)F)C1=O (stereo partly drawn) [Compound P-30, 2-methyl-N-[3-oxo-2-(2,2,2-trifluoroethyl)isoxazolidin-4-yl]-5-[(2S)-2-(trifluoromethylsulfonylamino)propoxy]pyridine-3-carboxamide]
≥ 80%: mortality at 200 ppm [7]

CC(C)C(=O)OCN([C@@H](C)COc1cnc(Cl)c(C(=O)NC2(C#N)CC2)c1)S(=O)(=O)C(F)(F)F [Compound P-9, [[(1S)-2-[[6-chloro-5-[(1-cyanocyclopropyl)carbamoyl]-3-pyridyl]oxy]-1-methyl-ethyl]-(trifluoromethylsulfonyl)amino]methyl 2-methylpropanoate]
≥ 80%: mortality at 12 ppm [2, 9] | mortality at 200 ppm [7] | mortality at 200 ppm [3, 10] | mortality at 200 ppm [4, 11]

C[C@@H](COc1cnc(Cl)c(C(=O)NC2(C#N)CCC2)c1)NS(=O)(=O)C(F)(F)F [Compound P-48, 2-chloro-N-(1-cyanocyclobutyl)-5-[(2S)-2-(trifluoromethylsulfonylamino)propoxy]pyridine-3-carboxamide]
≥ 80%: mortality at 24 ppm [1, 8] | mortality at 12 ppm [2, 9] | mortality at 200 ppm [7] | mortality at 200 ppm [3, 10] | mortality at 200 ppm [6, 12]

C[C@@H](COc1cnc(Cl)c(C(=O)NC2CC2)c1)N(CC#N)S(=O)(=O)C(F)(F)F [Compound P-15, 2-chloro-5-[(2S)-2-[cyanomethyl (trifluoromethylsulfonyl)amino]propoxy]-N-cyclopropyl-pyridine-3-carboxamide]
≥ 80%: mortality at 24 ppm [1, 8] | mortality at 12 ppm [2, 9] | mortality at 200 ppm [3, 10] | mortality at 200 ppm [4, 11] | percent effect (mortality or growth inhibition) at 200 ppm [5] | mortality at 200 ppm [6, 12]

CCNC(=O)c1cc(OC[C@H](C)NS(=O)(=O)C(F)(F)F)cnc1Cl [Compound P-50, 2-chloro-N-ethyl-5-[(2S)-2-(trifluoromethylsulfonylamino)propoxy]pyridine-3-carboxamide]
≥ 80%: mortality at 12 ppm [2, 9] | mortality at 200 ppm [3, 10] | percent effect (mortality or growth inhibition) at 200 ppm [5]

C[C@@H](COc1cnc(Cl)c(C(=O)NC2CC2)c1)N(C)S(=O)(=O)C(F)(F)F [Compound P-16, 2-chloro-N-cyclopropyl-5-[(2S)-2-[methyl(trifluoromethylsulfonyl)amino]propoxy]pyridine-3-carboxamide]
≥ 80%: mortality at 24 ppm [1, 8] | mortality at 12 ppm [2, 9] | mortality at 200 ppm [3, 10] | percent effect (mortality or growth inhibition) at 200 ppm [5] | mortality at 200 ppm [6, 12]

COC(=O)N([C@@H](C)COc1cnc(Cl)c(C(=O)NC2CC2)c1)S(=O)(=O)C(F)(F)F [Compound P-14, methyl N-[(1S)-2-[[6-chloro-5-(cyclopropylcarbamoyl)-3-pyridyl]oxy]-1-methyl-ethyl]-N-(trifluoromethylsulfonyl)carbamate]
≥ 80%: mortality at 24 ppm [1] | mortality at 12 ppm [2] | mortality at 200 ppm [3] | mortality at 200 ppm [4] | percent control (mortality or growth inhibition) at 200 ppm [5] | mortality at 200 ppm [6]

Cc1ncc(OC[C@H](C)NS(=O)(=O)C(F)(F)F)cc1C(=O)NC1CC1 [Compound P-62, N-cyclopropyl-2-methyl-5-[(2S)-2-(trifluoromethylsulfonylamino)propoxy]pyridine-3-carboxamide]
≥ 80%: mortality at 200 ppm [7]

C[C@@H](COc1cnc(Cl)c(C(=O)NC2CC2)c1)N(C(=O)OC(C)(C)C)S(=O)(=O)C(F)(F)F [Compound P-42, tert-butyl N-[(1S)-2-[[6-chloro-5-(cyclopropylcarbamoyl)-3-pyridyl]oxy]-1-methyl-ethyl]-N-(trifluoromethylsulfonyl)carbamate]
≥ 80%: mortality at 12 ppm [2, 9] | mortality at 200 ppm [7] | mortality at 200 ppm [3, 10] | percent effect (mortality or growth inhibition) at 200 ppm [5] | mortality at 200 ppm [6, 12]

C[C@@H](COc1cnc(Cl)c(C(=O)NCC(F)(F)F)c1)NS(=O)(=O)C(F)(F)F [Compound P-3, 2-chloro-N-(2,2,2-trifluoroethyl)-5-[(2S)-2-(trifluoromethylsulfonylamino)propoxy]pyridine-3-carboxamide]
≥ 80%: mortality at 12 ppm [2, 9] | mortality at 200 ppm [7] | mortality at 200 ppm [3, 10] | mortality at 200 ppm [4, 11] | percent effect (mortality or growth inhibition) at 200 ppm [5] | mortality at 200 ppm [6, 12]

C[C@@H](COc1cnc(Cl)c(C(=O)N(C)C2(C#N)CC2)c1)NS(=O)(=O)C(F)(F)F [Compound P-47, 2-chloro-N-(1-cyanocyclopropyl)-N-methyl-5-[(2S)-2-(trifluoromethylsulfonylamino)propoxy]pyridine-3-carboxamide]
≥ 80%: mortality at 12 ppm [2, 9] | mortality at 200 ppm [7] | mortality at 200 ppm [3, 10] | mortality at 200 ppm [4, 11]

CC(=O)N([C@@H](C)COc1cnc(Cl)c(C(=O)NC2CC2)c1)S(=O)(=O)C(F)(F)F [Compound P-43, 5-[(2S)-2-[acetyl(trifluoromethylsulfonyl)amino]propoxy]-2-chloro-N-cyclopropyl-pyridine-3-carboxamide]
≥ 80%: mortality at 24 ppm [1, 8] | mortality at 12 ppm [2, 9] | mortality at 200 ppm [7] | mortality at 200 ppm [3, 10] | mortality at 200 ppm [4, 11] | percent effect (mortality or growth inhibition) at 200 ppm [5] | mortality at 200 ppm [6, 12]

Cc1ncc(OC[C@H](C)NS(=O)(=O)C(F)(F)F)cc1C(=O)NC1CCN(c2ccc(F)cc2)C1=O (stereo partly drawn) [Compound P-35, N-[1-(4-fluorophenyl)-2-oxo-pyrrolidin-3-yl]-2-methyl-5-[(2S)-2-(trifluoromethylsulfonylamino)propoxy]pyridine-3-carboxamide]
≥ 80%: mortality at 200 ppm [7]
